Results as given in patent US20260226101A1, “PEPTIDE WITH ANTI-INFLAMMATORY AND ANTI-MICROBIAL ACTIVITY” (priority 2023, published 2026).
Ends that are not written are not given here.

How the values were obtained:
[1] = system: E. coli ATCC 8739-induced septic peritonitis; assay: E. coli-induced septic peritonitis model; format: in vivo, BALB/c mice; details: administration at 1, 24 and 72 h post injection of E. coli; last time point of 8 h
[2] = system: Escherichia coli ATCC 8739; assay: Time-kill assay; format: cell-based; details: E. coli
Protocol: The survival of bacteria, time kill efficacy assay of IS 111 was further evaluated for activity against bacterial strain mentioned above according to CLSI reference method, with slightly modification. MICs were determined by broth microdilution assay as described above. […] Test tubes of MHB without test compound IS 111 were used as vehicle controls. Overnight cultures of the bacterial strains at cell densities of approximately 1×10^8 CFU/ml were used to inoculate both test and control tubes. The standard tube dilution method was opted to evaluate the time-kill efficacy of bacteria. Bacterial inoculum (1 mL) was diluted by adding 9 mL sterile saline solution and serially diluted up to 10^−3. […] 100 μL incubated suspension was transferred on the agar plates and spread through the spreader. Colony counts were performed after 24 h incubation at 37° C. Plates with 10-300 colonies were used for these counts, and the kill rate was determined by plotting log 10 viable counts (CFU/ml) against time. Bactericidal activity was defined as a ≥3 log 10 decreases in CFU/ml of the initial microbial population, while bacteriostatic activity was defined was defined as a <3 log 10 decrease in CFU/ml. The assay was performed in triplicate [Olufunmiso O Olajuyigbe et al., 2015; Sutthiwan Thammawat et al., 2017]
The time-kill kinetics antibacterial study of the Peptide IS 111 was carried out to assess the killing rate of the compound within a given contact time. The survival of bacteria, time kill efficacy assay of IS 111 was further evaluated for activity against Escherichia coli ATCC 8739 and Staphylococcus aureus ATCC 6538, Pseudomonas aeruginosa ATCC 9027 and Klebsiella pneumoniae ATCC 700603 according to CLSI reference method, with slightly modification. MICs were determined by broth microdilution assay as described above. […] 10. Test tubes of MHB without test compound Peptide IS 111 were used as vehicle controls. Overnight cultures of the bacterial strains at cell densities of approximately 1×10^6 CFU/ml were used to inoculate both test and control tubes.
After each interval, ten-fold dilutions were prepared with normal saline, and 100 μL incubated suspension was transferred on the agar plates and spread through the spreader. Colony counts were performed after 24 h incubation at 37° C. Plates with 10-300 colonies were used for these counts, and the kill rate was determined by plotting log 10 viable counts (CFU/ml) against time. Bactericidal activity was defined as a ≥3 log 10 decrease in CFU/ml of the initial microbial population, while bacteriostatic activity was defined as a <3 log 10 decrease in CFU/ml. The assay was performed in triplicate. The proportion of cells surviving at 60 min was calculated, as was the mean and standard deviation. Proportions of surviving cells were compared using Student's 2-tailed t-test, assuming unequal variance and differences were considered significant where p≤0.05.

[3] = system: LPS-stimulated peritoneal macrophages; assay: Cytokine ELISA in LPS-stimulated peritoneal macrophages; format: cell-based, BALB/c mice
Protocol: BALB/c mice (6-8 wk old) of either sex was injected IP with 1 ml of 4% sterile thioglycollate broth in PBS. After 4 d, mice were sacrificed, and peritoneal macrophages were harvested as described below [Meurer S K, 2016] and this model is well known as “Thioglycollate-induced peritonitis model”. […] After 4 days, mice were then euthanized, and the peritoneal macrophages were harvested by lavaging the peritoneal cavity with 5-6 mL of harvest medium (EDTA 5 mM+PBS). Isolated peritoneal exudate cells were washed twice with RPMI and centrifuged at 1000 rpm/400×g for 8-10 min at 4° C. […] The plates were then washed with warm PBS to remove non-adherent cells. […] After 24 h, culture supernatants were collected for estimation of cytokines by ELIZA and RTqPCR, whereas cells were harvested for western blotting. The procedure of ELISA, RTqPCR and other conditions are same as in the section. [Min Jee Kim et al., 2014].

## FAKKFAK [IS 111, Phe-Ala-Lys-Lys-Phe-Ala-Lys]
[1]
  Survival: 80%
[2]; 0.5 × MIC, 0 h
  Viable count: 6.4 ± 0.48 1 × 10^5 CFU/ml
[2]; 0.5 × MIC, 1 h
  Viable count: 5.5 ± 0.28 1 × 10^5 CFU/ml
[2]; 0.5 × MIC, 2 h
  Viable count: 5.0 ± 0.20 1 × 10^5 CFU/ml
[2]; 0.5 × MIC, 3 h
  Viable count: 4.2 ± 0.10 1 × 10^5 CFU/ml
[2]; 0.5 × MIC, 4 h
  Viable count: 3.7 ± 0.08 1 × 10^5 CFU/ml
[2]; 0.5 × MIC, 5 h
  Viable count: 2.9 ± 0.35 1 × 10^5 CFU/ml
[2]; 0.5 × MIC, 12 h
  Viable count: 2.5 ± 0.35 1 × 10^5 CFU/ml
[2]; 0.5 × MIC, 24 h
  Viable count: 2.3 ± 0.43 1 × 10^5 CFU/ml
[2]; 0.5×MIC (0.78 μg/ml), 24 h
  Reduction in viability: 2 log 10 CFU/ml
[2]; 0.5×MIC and 1×MIC, 24 h
  Type of activity (bacteriostatic or bactericidal): bacteriostatic
[2]; 1 × MIC, 0 h
  Viable count: 6.5 ± 0.10 1 × 10^5 CFU/ml
[2]; 1 × MIC, 1 h
  Viable count: 4.2 ± 0.45 1 × 10^5 CFU/ml
[2]; 1 × MIC, 2 h
  Viable count: 2.1 ± 0.38 1 × 10^5 CFU/ml
[2]; 1 × MIC, 3 h
  Viable count: 1.2 ± 0.28 1 × 10^5 CFU/ml
[2]; 1 × MIC, 4 h
  Viable count: 0.6 ± 0.20 1 × 10^5 CFU/ml
[2]; 1 × MIC, 5 h
  Viable count: 0.4 ± 0.10 1 × 10^5 CFU/ml
[2]; 1 × MIC, 12 h
  Viable count: 0.2 ± 0.08 1 × 10^5 CFU/ml
[2]; 1 × MIC, 24 h
  Viable count: 0 1 × 10^5 CFU/ml
[2]; 1×MIC
  Time to complete reduction of initial inoculum: 24 h
[2]; 5 × MIC, 0 h
  Viable count: 6.5 ± 0.23 1 × 10^5 CFU/ml
[2]; 5 × MIC, 1 h
  Viable count: 0.5 ± 0.05 1 × 10^5 CFU/ml
[2]; 5 × MIC, 2 h
  Viable count: 0.2 ± 0.05 1 × 10^5 CFU/ml
[2]; 5 × MIC, 3 h
  Viable count: 0 1 × 10^5 CFU/ml
[2]; 5 × MIC, 4 h
  Viable count: 0 1 × 10^5 CFU/ml
[2]; 5 × MIC, 5 h
  Viable count: 0 1 × 10^5 CFU/ml
[2]; 5 × MIC, 12 h
  Viable count: 0 1 × 10^5 CFU/ml
[2]; 5 × MIC, 24 h
  Viable count: 0 1 × 10^5 CFU/ml
[3]; IL-1β, IL-6, IL-12p70, TNF-α, text prints RAW 264.7 cells
  Concentration of maximum inhibition for all cytokines: 100 µM
[3]; summary table
  IL-10 levels: TNF-α and ↑ IL-10 levels.
